Key:
[1] = target: T1, human orexin 1 receptors (Homo sapiens, UniProt O43613); assay: Radioligand binding assay ([3H]-SB649868 competition), hOx1R; settings: competition with about 1 nM [3H]-SB649868; CHO or HEK cell membranes expressing human orexin 1 receptor
T1 sequence (O43613 1-425): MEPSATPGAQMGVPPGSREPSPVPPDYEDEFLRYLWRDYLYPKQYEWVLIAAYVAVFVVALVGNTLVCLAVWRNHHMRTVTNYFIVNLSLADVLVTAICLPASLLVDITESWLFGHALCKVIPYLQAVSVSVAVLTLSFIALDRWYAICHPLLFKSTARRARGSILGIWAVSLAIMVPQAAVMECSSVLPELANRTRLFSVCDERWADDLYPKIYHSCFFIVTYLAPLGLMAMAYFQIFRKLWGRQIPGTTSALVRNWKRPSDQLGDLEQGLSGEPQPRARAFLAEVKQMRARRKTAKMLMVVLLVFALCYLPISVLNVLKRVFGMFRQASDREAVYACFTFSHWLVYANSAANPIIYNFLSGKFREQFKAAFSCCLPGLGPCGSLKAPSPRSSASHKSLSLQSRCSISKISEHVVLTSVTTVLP
Protocol: (§1) The cell pellet was either stored at −80° C. or used directly. Before the experiments, cell membranes were re-suspended in binding assay buffer (10 mM HEPES, 0.5% (w/v) bovine serum albumin, pH 7.5) by homogenisation with a Polytron homogeniser at 50 Hz for 20 s. Cell membranes were also used as made available by commercial providers.
(§2) Bound radioactivity was measured, and data were analysed with the program XLFIT or Graphpad Prism. Protein concentration was determined according to the Bradford/BioRad Protein Assay Kit.
(§3) In competition experiments, cell homogenates (150 μl) were incubated in assay buffer (10 mM HEPES, pH 7.5, 0.5% (w/v) bovine serum albumin, 5 mM MgCl2, 1 mMCaCl2, and tween 0.05%) for 1 h at room temperature with about 1 nM of the radioligand [^3H]-SB649868, 66 Ci/mmole, 50 μl), and with various concentrations of compounds of the invention (50 μl) in triplicates; non-specific binding was determined in the presence of almorexant (10 μM). Reactions were terminated by vacuum filtration, 3 washes of ice cold wash buffer (Tris-HCl pH 7.4/10 mM, with NaCl 154 mM). Competition data is expressed in Table 2 as Kd [μM].

[2] = target: T2, human orexin 2 receptors (Homo sapiens, UniProt O43614); assay: Calcium accumulation in cells (FLIPR), hOx2R; format: cell-based; settings: cells expressing human orexin 2 receptor; inhibition of orexin A-induced calcium accumulation; Cheng and Prusoff correction
T2 sequence (O43614 1-444): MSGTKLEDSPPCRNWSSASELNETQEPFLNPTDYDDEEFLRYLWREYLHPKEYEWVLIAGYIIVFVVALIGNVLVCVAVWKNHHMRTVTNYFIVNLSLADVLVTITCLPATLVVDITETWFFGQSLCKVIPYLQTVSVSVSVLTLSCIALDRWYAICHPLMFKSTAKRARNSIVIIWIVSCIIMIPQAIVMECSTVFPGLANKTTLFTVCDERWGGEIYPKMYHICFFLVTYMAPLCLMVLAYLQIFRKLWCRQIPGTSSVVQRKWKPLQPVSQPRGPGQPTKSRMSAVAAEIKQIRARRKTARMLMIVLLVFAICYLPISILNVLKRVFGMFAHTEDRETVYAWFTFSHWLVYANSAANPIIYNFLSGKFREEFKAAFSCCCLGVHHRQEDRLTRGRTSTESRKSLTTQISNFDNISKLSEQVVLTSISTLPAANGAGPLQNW

[3] = target: T2, human orexin 2 receptors; assay: Radioligand binding assay ([3H]-SB649868 competition), hOx2R; settings: competition with about 1 nM [3H]-SB649868; CHO or HEK cell membranes expressing human orexin 2 receptor; read-out: binding hOx2R Kd
Protocol: as §1, §2
as §3, with “μM).” for “μM). Reactions were terminated by vacuum filtration, 3 washes of ice cold wash buffer (Tris-HCl pH 7.4/10 mM, with NaCl 154 mM). Competition data is expressed in Table 2 as Kd [μM].”

[4] = target: T1, human orexin 1 receptors; assay: Calcium accumulation in cells (FLIPR), hOx1R; settings: for inhibition at 10 µM: read-out: FLIPR hOx1R % inhibition value

Structure (SMILES) | Kd [1] [nM] | Ki [2] [nM] | Kd [3] [nM] | Ki [4] [nM] | inhibition at 10 µM [4] [%]
N#Cc1ccnc(N2CCC3(CCCN(Cc4cccc(-c5ncccn5)c4)C3=O)CC2)c1 [Example 35, 2-(1-oxo-2-(3-(pyrimidin-2-yl)benzyl)-2,9-diazaspiro[5.5]undecan-9-yl)isonicotinonitrile] | 394 | 45 | 98 | 868 | –
Cc1cc(C)nc(N2CCC3(CCCN(Cc4cccc(-c5ncc(C)o5)c4)C3=O)CC2)n1 [Example 36, 9-(4,6-dimethylpyrimidin-2-yl)-2-(3-(5-methyloxazol-2-yl)benzyl)-2,9-diazaspiro[5.5]undecan-1-one] | 431 | 38 | 89 | 714 | –
Cc1cc(C#N)nc(N2CCC3(CCCN(Cc4cccc(-c5ncc(C)o5)c4)C3=O)CC2)n1 [Example 37, 6-methyl-2-(2-(3-(5-methyloxazol-2-yl)benzyl)-1-oxo-2,9-diazaspiro[5.5]undecan-9-yl)pyrimidine-4-carbonitrile] | > 10000 | 79 | 1160 | 1890 | –
Cc1ccnc(N2CCC3(CCCN(Cc4cccc(-c5ncc(C)o5)c4)C3=O)CC2)n1 [Example 38, 2-(3-(5-methyloxazol-2-yl)benzyl)-9-(4-methylpyrimidin-2-yl)-2,9-diazaspiro[5.5]undecan-1-one] | 1190 | 43 | 177 | 924 | –
Cc1cnc(-c2cccc(CN3CCCC4(CCN(c5cccc(C#N)n5)CC4)C3=O)c2)o1 [Example 39, 6-(2-(3-(5-methyloxazol-2-yl)benzyl)-1-oxo-2,9-diazaspiro[5.5]undecan-9-yl)picolinonitrile] | 1440 | 29 | 367 | 533 | –
Cc1cnc(-c2cccc(CN3CCCC4(CCN(c5cc(C#N)ccn5)CC4)C3=O)c2)o1 [Example 40, 2-(2-(3-(5-methyloxazol-2-yl)benzyl)-1-oxo-2,9-diazaspiro[5.5]undecan-9-yl)isonicotinonitrile] | 332 | 19 | 37 | 241 | –
Cc1cncc(N2CCC3(CCCC(=O)N3Cc3cccc4[nH]ccc34)CC2)n1 [Example 41, 1-((1H-indol-4-yl)methyl)-9-(6-methylpyrazin-2-yl)-1,9-diazaspiro[5.5]undecan-2-one] | 2820 | 15 | 85 | 1640 | –
Cc1ccnc(N2CCC3(CCCC(=O)N3Cc3cccc4[nH]ccc34)CC2)n1 [Example 42, 1-((1H-indol-4-yl)methyl)-9-(4-methylpyrimidin-2-yl)-1,9-diazaspiro[5.5]undecan-2-one] | 5230 | 26 | 140 | – | 34
COc1cncc(N2CCC3(CCCC(=O)N3Cc3cccc4[nH]ccc34)CC2)n1 [Example 43, 1-((1H-indol-4-yl)methyl)-9-(6-methoxypyrazin-2-yl)-1,9-diazaspiro[5.5]undecan-2-one] | 1860 | 17 | 612 | 729 | –
O=C1CCCC2(CCN(c3cncc(Cl)n3)CC2)N1Cc1cccc2[nH]ccc12 [Example 44, 1-((1H-indol-4-yl)methyl)-9-(6-chloropyrazin-2-yl)-1,9-diazaspiro[5.5]undecan-2-one] | 5740 | 12 | 238 | 1570 | –
Cc1cc(C)nc(N2CCC3(CCCN(Cc4n[nH]c5ccccc45)C3=O)CC2)n1 [Example 45, 2-((1H-indazol-3-yl)methyl)-9-(4,6-dimethylpyrimidin-2-yl)-2,9-diazaspiro[5.5]undecan-1-one] | 1060 | 10 | 64 | 521 | –
O=C1N(Cc2c[nH]c3ccccc23)CCCC12CCN(c1nccc(Cl)n1)CC2 [Example 51, 2-((1H-indol-3-yl)methyl)-9-(4-chloropyrimidin-2-yl)-2,9-diazaspiro[5.5]undecan-1-one] | 4820 | 84 | 700 | – | 44
COc1cccc(N2CCC3(CCCN(Cc4c[nH]c5ccccc45)C3=O)CC2)n1 [Example 65, 2-((1H-indol-3-yl)methyl)-9-(6-methoxypyridin-2-yl)-2,9-diazaspiro[5.5]undecan-1-one] | > 10000 | 66 | 588 | 699 | –
Cc1ccnc(N2CCC3(CCCN(Cc4c[nH]c5ccccc45)C3=O)CC2)c1 [Example 67, 2-((1H-indol-3-yl)methyl)-9-(4-methylpyridin-2-yl)-2,9-diazaspiro[5.5]undecan-1-one] | 3590 | 134 | 315 | – | < 10
Cc1cc(C)nc(N2CCC3(CCCN(Cc4cccc(-c5ncccn5)c4)C3=O)CC2)c1 [Example 74, 9-(4,6-dimethylpyridin-2-yl)-2-(3-(pyrimidin-2-yl)benzyl)-2,9-diazaspiro[5.5]undecan-1-one] | > 10000 | 160 | 338 | 2150 | –
Cc1cc(C#N)nc(N2CCC3(CCCN(Cc4c[nH]c5ccccc45)C3=O)CC2)n1 [Example 75, 2-(2-((1H-indol-3-yl)methyl)-1-oxo-2,9-diazaspiro[5.5]undecan-9-yl)-6-methylpyrimidine-4-carbonitrile] | > 10000 | 7.2 | 466 | 1480 | –
Cc1cc(C#N)cc(N2CCC3(CCCN(Cc4c[nH]c5ccccc45)C3=O)CC2)n1 [Example 78, 2-(2-((1H-indol-3-yl)methyl)-1-oxo-2,9-diazaspiro[5.5]undecan-9-yl)-6-methylisonicotinonitrile] | 3420 | 3 | 216 | 481 | –
N#Cc1ccnc(N2CCC3(CCCN(Cc4c[nH]c5ccccc45)C3=O)CC2)n1 [Example 80, 2-(2-((1H-indol-3-yl)methyl)-1-oxo-2,9-diazaspiro[5.5]undecan-9-yl)pyrimidine-4-carbonitrile] | 7760 | 50 | 1100 | – | 41
Cc1cnc(N2CCC3(CCCN(Cc4c[nH]c5ccccc45)C3=O)CC2)nc1C [Example 81, 2-((1H-indol-3-yl)methyl)-9-(4,5-dimethylpyrimidin-2-yl)-2,9-diazaspiro[5.5]undecan-1-one] | 798 | 45 | 29 | 2030 | –
N#Cc1cccc(N2CCC3(CCCN(Cc4c[nH]c5ccccc45)C3=O)CC2)n1 [Example 83, 6-(2-((1H-indol-3-yl)methyl)-1-oxo-2,9-diazaspiro[5.5]undecan-9-yl)picolinonitrile] | > 10000 | 13 | 2110 | 1520 | –
COc1cc(OC)nc(N2CCC3(CCCN(Cc4c[nH]c5ccccc45)C3=O)CC2)n1 [Example 88, 2-((1H-indol-3-yl)methyl)-9-(4,6-dimethoxypyrimidin-2-yl)-2,9-diazaspiro[5.5]undecan-1-one] | 5060 | 46 | 611 | 406 | –
